US20240158348A1, “HERBICIDAL CYCLIC AMIDES N-SUBSTITUTED WITH A HALOALKYLSULFONYLANILIDE GROUP” (FMC Corporation, priority 2021, published 2024)

Columns and labels:
Type in all cases: in vivo
kochia (Bassia scoparia) = test: Test C postemergence, kochia; details: for Kochia plant response rating: 31 g ai/ha Postemergence, visual injury, 0 to 100 scale (0 no effect, 100 complete control); for Plant response rating (0 to 100 scale), Kochia: 125 g ai/ha Postemergence, 0 is no effect, 100 is complete control
Procedure, shortened: (§1)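 Steps: sow in loam soil blended with sand; treat soil preemergence by directed spray, or treat young plants (2–10 cm, one to two leaves) postemergence; hold in greenhouse 10 or 12 days; rate injury visually relative to untreated controls on a 0–100 scale.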

[1] = system: sedge, umbrella (small-flower umbrella sedge, Cyperus difformis); test: Test D flooded paddy test, umbrella sedge; design: key: 0 = no effect, 100 = complete control; details: 250 g ai/ha, Flood; applied to paddy water at 2-leaf stage; visual rating after 13 days; scale 0 (no effect) to 100 (complete control)
Procedure, shortened: (§2)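 Visual response scores run 0 (no effect) to 100 (complete control), judged against controls 13 days after treatment. Compounds were added to paddy water 3 cm deep over soil, around plants at the 2-leaf stage kept in a greenhouse.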

[2] = system: blackgrass (Alopecurus myosuroides); test: Test C postemergence, blackgrass; details: 125 g ai/ha Postemergence; 0 is no effect, 100 is complete control
[3] = system: galium (catchweed bedstraw, Galium aparine); test: Test C postemergence, galium; details: for Galium plant response rating: 31 g ai/ha Postemergence, visual injury, 0 to 100 scale (0 no effect, 100 complete control); for Plant response rating (0 to 100 scale), Galium: 125 g ai/ha Postemergence, 0 is no effect, 100 is complete control
[4] = system: blackgrass (Alopecurus myosuroides); test: Test C preemergence, blackgrass; details: 0 is no effect, 100 is complete control
Procedure, shortened: as §1

[5] = system: oat, wild (wild oat, Avena fatua); test: Test C preemergence, wild oat; details: 0 is no effect, 100 is complete control
Procedure, shortened: as §1

[6] = system: pigweed, palmer (palmer amaranth, Amaranthus palmeri); test: Test C postemergence, palmer amaranth; details: visual injury, 0 to 100 scale (0 no effect, 100 complete control)
Procedure, shortened: as §1

[7] = system: horseweed (Erigeron canadensis); test: Test C postemergence, horseweed; details: for Horseweed plant response rating: 31 g ai/ha Postemergence, visual injury, 0 to 100 scale (0 no effect, 100 complete control); for Plant response rating (0 to 100 scale), Horseweed: 125 g ai/ha Postemergence, 0 is no effect, 100 is complete control
Procedure, shortened: as §1

rice (Oryza sativa) = test: Test D flooded paddy test, rice; design: key: 0 = no effect, 100 = complete control; details: 250 g ai/ha, Flood; applied to paddy water at 2-leaf stage; visual rating after 13 days; scale 0 (no effect) to 100 (complete control)
Procedure, shortened: as §2

SMILES | Kochia plant response rating (kochia (Bassia scoparia)) | Plant response rating (0 to 100 scale), Kochia (kochia (Bassia scoparia)) | Plant response rating, Sedge, Umbrella [1] | Plant response rating (0 to 100 scale), Blackgrass [2] | Galium plant response rating [3] | Plant response rating (0 to 100 scale), Galium [3] | Plant response rating (0 to 100 scale), Blackgrass ([4]; 31 g ai/ha Preemergence) | Plant response rating (0 to 100 scale), Blackgrass ([4]; 125 g ai/ha Preemergence) | Plant response rating (0 to 100 scale), Oat, Wild ([5]; 31 g ai/ha Preemergence) | Plant response rating (0 to 100 scale), Oat, Wild ([5]; 125 g ai/ha Preemergence) | Pigweed, Palmer plant response rating ([6]; 31 g ai/ha Postemergence) | Pigweed, Palmer plant response rating ([6]; 125 g ai/ha Postemergence) | Horseweed plant response rating [7] | Plant response rating (0 to 100 scale), Horseweed [7] | Plant response rating, Rice (rice (Oryza sativa))
Cc1c(NS(=O)(=O)C(F)(F)F)cc(N2CCCC(OC3CCC3)C2=O)c(C)c1F (stereo not drawn) [Compound 36] | 40 | 80 | 95 | 30 | 60 | 80 | 80 | 100 | 30 | 90 | 30 | 70 | 40 | 70 | 0
Cc1c(N2CCCC(OC3CC3)C2=O)cc(N(COC(=O)C(C)(C)C)S(=O)(=O)C(F)(F)F)c(C)c1F (stereo not drawn) [Compound 37] | 50 | 70 | 95 | 60 | 60 | 90 | 10 | 60 | 20 | 20 | 0 | 30 | 80 | 80 | 0
CC(=O)N(c1cc(N2CCC(OC3CC3)C2=O)c(C)cc1Cl)S(=O)(=O)C(F)(F)F (stereo not drawn) [Compound 38] | 80 | 90 | 75 | 70 | 90 | 100 | 80 | 90 | 30 | 100 | 50 | 80 | 90 | 100 | 0
COC(=O)N(c1cc(N2CCC(OC3CC3)C2=O)c(C)cc1Cl)S(=O)(=O)C(F)(F)F (stereo not drawn) [Compound 40] | 70 | 90 | 90 | 60 | 80 | 100 | 50 | 90 | 10 | 90 | 30 | 90 | 80 | 80 | 0
